Experimental findings from ChEMBL document CHEMBL1130762, “Structure-activity relationships of a series of 1-substituted-4-methylbenzimidazole neuropeptide Y-1 receptor antagonists” (Bioorg Med Chem Lett, 1998) are described below.

Each structure is given as a SMILES string. Where “and” joins values, the source holds several entries; their conditions need not be identical. Equal values may be shown once.

One may read the Ki as a dissociation constant, usually derived from enzyme kinetics or from competition with a known ligand. A high value points to weaker binding.

The subject of the first assay is SK-N-MC. Put plainly: Tested to reverse NPY induced inhibition of forskolin-stimulated cAMP in SK-N-MC cells is evaluated. The assay is classed as functional, cell-based, Homo sapiens.
Consider `Cc1cccc2c1nc(COc1ccc(Cl)cc1)n2CCCC1CCN(CCCN2CCCCC2)CC1`, for which the affinity corresponds to a Ki of 46 nM.

A further assay addresses T1, Neuropeptide Y receptor type 1 (Homo sapiens, UniProt P25929).
T1 sequence (P25929 whole entry): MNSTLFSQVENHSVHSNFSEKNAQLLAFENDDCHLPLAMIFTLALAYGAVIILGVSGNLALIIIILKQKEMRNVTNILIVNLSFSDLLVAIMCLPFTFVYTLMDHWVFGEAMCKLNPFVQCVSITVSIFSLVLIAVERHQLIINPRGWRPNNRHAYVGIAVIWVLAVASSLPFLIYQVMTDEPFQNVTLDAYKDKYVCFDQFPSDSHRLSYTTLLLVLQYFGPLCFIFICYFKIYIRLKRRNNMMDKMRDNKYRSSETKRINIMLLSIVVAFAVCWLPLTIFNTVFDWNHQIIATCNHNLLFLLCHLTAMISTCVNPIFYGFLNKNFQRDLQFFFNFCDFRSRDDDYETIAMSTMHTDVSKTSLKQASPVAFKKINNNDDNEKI
Put plainly: Binding affinity at cloned Neuropeptide Y receptor type 1 expressed in AV-12 cells is evaluated. The assay is classed as cell-based, AV12.
`Clc1ccc(OCc2nc3c(OCCCN4CCCCC4)cccc3n2CCCC2CCCNC2)cc1` (stereo unspecified) gave a Ki of 2 nM.

A further assay addresses T1, Neuropeptide Y receptor type 1. As to the kind of experiment: Binding affinity at cloned Neuropeptide Y-1 receptor expressed in AV-12 cells is evaluated. The assay is classed as cell-based, AV12.
Molecule `CCOC(=O)CN1CCC(CCCn2c(COc3ccc(Cl)cc3)nc3c(C)cccc32)CC1` gave a Ki of 427 nM.

In turn, `Cc1cccc2c1nc(COc1ccc(Cl)cc1)n2CCCC1CCN(CCC(C)C)CC1` displayed a Ki of 11 nM. The same measure, in the same setting: the same measure for `Cc1cccc2c1nc(COc1ccc(Cl)cc1)n2CCCC1CCN(C(=O)CCN2CCCCC2)CC1`: 260 nM; for `CCOC(=O)CCCN1CCC(CCCn2c(COc3ccc(Cl)cc3)nc3c(C)cccc32)CC1`: 29 nM; for `CCCN1CCC(CCCn2c(COc3ccc(Cl)cc3)nc3c(C)cccc32)CC1`: 29 nM. In the case of `Cc1cccc2c1nc(COc1ccc(Cl)cc1)n2CCCC1CCN(CCc2ccccc2)CC1`, the Ki is 29 nM. `Cc1cccc2c1nc(COc1ccc(Cl)cc1)n2CCCC1CCN(CCCc2ccccc2)CC1` showed a Ki of 57 nM.

With `Cc1cccc2c1nc(COc1ccc(Cl)cc1)n2CCCC1CCN(CC(=O)O)CC1`, the affinity, expressed as Ki, was 2190 nM.

On to `Cc1cccc2c1nc(COc1ccc(Cl)cc1)n2CCCC1CCN(CCCC(=O)O)CC1`, for which the Ki stood at 1630 nM.

In the case of `Cc1cccc2c1nc(COc1ccc(Cl)cc1)n2CCCC1CCN(CCCC(N)=O)CC1`, affinity was put at a Ki of 88 nM. In the case of `Cc1cccc2c1nc(COc1ccc(Cl)cc1)n2CCCC1CCN(CCN2CCCCC2)CC1`, the Ki stood at 37 nM. Take `Cc1cccc2c1nc(COc1ccc(Cl)cc1)n2CCCC1CCNCC1`: the Ki was 335 nM. As to `Cc1cccc2c1nc(COc1ccc(Cl)cc1)n2CCCC1CCN(CCCCN2CCCCC2)CC1`, the Ki is 52 nM and 5.7 nM.

In turn, `Cc1cccc2c1nc(COc1ccc(Cl)cc1)n2CCCC1CCN(C)CC1` registered a Ki of 52 nM. Still for that read-out and setting: the same measure for `Cc1cccc2c1nc(COc1ccc(Cl)cc1)n2CCCC1CCN(CCCN2CCCCC2)CC1`: 4.5 nM. Take `Cc1cccc2c1nc(COc1ccc(Cl)cc1)n2CCCC1CCN(Cc2ccccc2)CC1`: the Ki came out at 109 nM. On the same count and under the same terms, for `Cc1cccc2c1nc(COc1ccc(Cl)cc1)n2CCCC1CCN(CC(=O)N2CCCCC2)CC1` the value was 136 nM; for `Cc1cccc2c1nc(COc1ccc(Cl)cc1)n2CCCC1CCN(CCCC(=O)N2CCCCC2)CC1`, 21 nM.

The next assay concerns SK-N-MC. Put plainly: Inhibition of NPY induced intracellular Ca++ mobilization in SK-N-MC cells is evaluated. The assay is classed as functional, cell-based, Homo sapiens.
`Cc1cccc2c1nc(COc1ccc(Cl)cc1)n2CCCC1CCN(CCCN2CCCCC2)CC1` came in with a Ki of 26 nM.
